Experimental data from patent US20260137697A1, “THIAZOLO[5,4-D]PYRIMIDINE COMPOUNDS, COMPOSITIONS COMPRISING THEM AND USES THEREOF” (University de Montreal, priority 2022, published 2026).

Assays:
A2058 cells = test: Proliferation inhibition, CellTiter-Glo, A2058; type: cell-based, human; settings: Table D-1; A2058 (BRAF V600E), 3 days; read-out: Prolif. (proliferation EC50)
Description: (§1) All cancer cell lines (A375, A101D, A2058, RKO, HT29 SK-MEL 30, IPC298, HepG2, HCT-116, Lovo, SW620, SW480, NCI-H358, NCI-H2122, Calu-6, NCIH2087, NCIH1755, NCIH1666 and Mewo) were obtained from ATCC and cultured in RPM1-1640 medium (Gibco) supplemented with 5% heat inactivated fetal bovine serum (FBS, Wisent) at 37° C. under 5% CO2. Cells were maintained in T175 flasks (Greiner). They were passaged by removing the culture medium, washing once in 10 mL of room temperature Phosphate Buffered Saline (PBS; Wisent) and incubating at 37° C. with 2 mL of 0.05% Trypsin (Thermo-Fisher). […]
(§2) After 3 days of incubation, the growth media were removed by aspiration and 60 μL of diluted CellTiter-Glo® reagent (10 μL CellTiter-Glo® reagent+50 μL of PBS) was added to each well. […] Luminescence signals were then acquired on a Synergy Neo2 plate reader (Biotek).
(§3) The effect of each compound dilution on the proliferation of cancer cell lines was expressed in % inhibition and calculated as follows. […]
(§4) The ability of each compound to inhibit proliferation was expressed as a EC50 value obtained by plotting the effect values for each data point of a dilution series and fitting the obtained curves using a log(agonist) versus response—variable slope (four parameters) function using GraphPadPrism (V7.0) or Dotmatics Screening Ultra platform.

BRAF = molecular target: T1, BRAF (Homo sapiens, UniProt P15056); test: BRAF kinase activity assay (ADP-Glo); type: biochemical; settings: Table 3; 10 μM ATP, kinase-dead MEK1 substrate
T1 construct: GST; purchased Millipore Sigma B4062-10UG
Outline: (§5)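 ADP-Glo luminescence read after 2 h reactions at 30° C containing 0.375 nM GST-kinase, kinase-dead MEK1 (75 nM), ATP at 10 μM, pH 7.5 HEPES/MgCl2/DTT, 0.05% DMSO. Compounds dosed from 100 to 0.01 nM (nine points); IC50 from variable-slope fit of % inhibition.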

CRAF = molecular target: T2, CRAF (Homo sapiens, UniProt P04049); test: CRAF kinase activity assay (ADP-Glo); type: biochemical; settings: Table 3; 10 μM ATP, kinase-dead MEK1 substrate
T2 construct: fused on or other part: GST tag (N-terminal according to the vendor's product)
Outline: as §5

A101D cells = test: Proliferation inhibition, CellTiter-Glo, A101D; type: cell-based, human; settings: Table D-1; A101D (BRAF V600E), 3 days; read-out: Prolif. (proliferation EC50)
Description: as §1, §2, §3, §4

T1 sequence (P15056 whole entry): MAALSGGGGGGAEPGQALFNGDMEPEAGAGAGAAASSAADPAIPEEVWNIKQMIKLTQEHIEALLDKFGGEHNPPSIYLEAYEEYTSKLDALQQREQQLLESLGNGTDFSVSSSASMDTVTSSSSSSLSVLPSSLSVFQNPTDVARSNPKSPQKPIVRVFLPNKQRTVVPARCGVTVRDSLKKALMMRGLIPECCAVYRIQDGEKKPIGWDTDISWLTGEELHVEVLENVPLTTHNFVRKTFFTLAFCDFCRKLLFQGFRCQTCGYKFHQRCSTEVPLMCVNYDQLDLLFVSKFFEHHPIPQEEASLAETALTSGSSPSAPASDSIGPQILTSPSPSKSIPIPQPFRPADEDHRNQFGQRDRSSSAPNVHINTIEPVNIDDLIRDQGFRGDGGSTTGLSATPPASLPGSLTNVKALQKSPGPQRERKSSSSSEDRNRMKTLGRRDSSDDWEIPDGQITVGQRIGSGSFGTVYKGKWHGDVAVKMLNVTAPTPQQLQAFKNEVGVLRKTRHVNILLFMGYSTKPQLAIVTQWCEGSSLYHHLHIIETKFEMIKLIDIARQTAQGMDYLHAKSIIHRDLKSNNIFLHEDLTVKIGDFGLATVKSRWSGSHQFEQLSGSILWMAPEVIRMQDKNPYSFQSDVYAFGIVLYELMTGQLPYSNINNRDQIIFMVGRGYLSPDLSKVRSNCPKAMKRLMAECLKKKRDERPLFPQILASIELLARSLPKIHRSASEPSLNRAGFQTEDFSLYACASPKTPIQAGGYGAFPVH
T2 sequence (P04049 whole entry Y340E/Y341E, form open, the tested form may be a part): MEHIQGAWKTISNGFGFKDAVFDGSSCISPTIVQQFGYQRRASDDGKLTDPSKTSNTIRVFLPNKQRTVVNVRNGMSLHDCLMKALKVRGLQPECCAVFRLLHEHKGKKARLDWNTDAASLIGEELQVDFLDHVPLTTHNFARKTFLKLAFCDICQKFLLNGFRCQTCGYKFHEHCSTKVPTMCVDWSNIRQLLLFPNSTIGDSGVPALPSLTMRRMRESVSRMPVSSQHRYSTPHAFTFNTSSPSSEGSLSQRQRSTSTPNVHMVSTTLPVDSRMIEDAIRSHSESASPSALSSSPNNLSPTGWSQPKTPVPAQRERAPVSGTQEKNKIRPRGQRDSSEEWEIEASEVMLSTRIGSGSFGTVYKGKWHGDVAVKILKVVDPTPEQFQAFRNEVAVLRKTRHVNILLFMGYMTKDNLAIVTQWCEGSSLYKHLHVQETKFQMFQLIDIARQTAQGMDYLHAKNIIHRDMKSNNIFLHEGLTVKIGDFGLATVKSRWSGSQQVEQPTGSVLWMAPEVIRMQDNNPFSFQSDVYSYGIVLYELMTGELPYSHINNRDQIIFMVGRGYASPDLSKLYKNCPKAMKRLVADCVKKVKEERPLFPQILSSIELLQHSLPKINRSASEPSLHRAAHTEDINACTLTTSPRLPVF

Row | IC50 (BRAF) [nM] | IC50 (CRAF) [nM] | Structure (SMILES) | EC50 (A2058 cells) [nM] | EC50 (A101D cells) [nM]
1 | < 1 | < 10 | Cc1c(F)cccc1S(=O)(=O)Nc1ccc(F)c(Nc2ncnc3sc(-n4cc(C(=O)N5C6CCC5CN(C)C6)c5ccccc54)nc23)c1F [Example 44] | < 300 | < 300
2 | 1 to 10 | < 10 | N#CC1(c2cccc3c2ncn3-c2nc3c(Nc4c(F)ccc(NS(=O)(=O)c5cccc(Cl)c5Cl)c4F)ncnc3s2)CC1 [Example 122] | < 300 | < 300
